The record followed here is patent US9012439B2, “Use of electrophilic compounds for inducing platelet production or maintaining platelet function” (University of Rochester, priority 2007, dated 2015).

For one experiment, the system named is C57BL/6 mice. The experiment in a line: Circulating platelet number in unirradiated mice. It counts as in vivo, mouse (C57BL/6). Particulars: unirradiated mice, 1 mg/kg IV for 4 consecutive days. As for the experimental part:
Seven or 8-week-old male C57BL/6 mice (Jackson Laboratories) were either exposed to 5 Gy cesium (Cs^137) total body irradiation (TBI) using a Model 8114 6000 Curie Shepherd Cs^137 irradiator (approximately 3200 Curie sealed Cs^137 source) with a dose rate of […] or left unexposed. Mice (n=4) received intravenous injections of vehicle (8% DMSO) or 15d-PGJ2 (1 mg/kg) or CDDO-Me (250 μg/kg) for 4 consecutive days from day 1 (days 1, 2, 3 and 4 post-irradiation). Blood was obtained from the aorta or the orbital sinus. Platelets were counted prior to radiation exposure and after radiation exposure on day 10, day 22, and day 31 in Example 7, or days 4, 10, 16, and 21 in Example 9 using the Heska® CBC-Diff™ Veterinary Analyzer (Fort Collins, Colo.). Data are expressed as average platelet counts from two separate experiments. For the unirradiated mice, platelets were counted on day 4, day 10, and day 15 in Example 7 or on the same days in Example 9.

The next experiment concerns M07e cells. The experiment in a line: Platelet production from M07e cells (flow cytometry). It counts as cell-based. To be noted: 10 μM, 24 h. As for the experimental part: Meg-01 and M07e cells were purchased from the American Type Culture Collection (Rockville, Md.) and Dami cells were a generous gift from Dr. Patricia J. Simpson-Haidaris (University of Rochester). All cells were cultured in RPMI-1640 tissue culture medium (Invitrogen) supplemented with 5% fetal bovine serum (FBS; Invitrogen), 10 mM HEPES (N-2-hydroxyethylpiperazine-N′-2-ethanesulfonic acid; Sigma), 2 mM L-glutamine (Invitrogen), 4.5 g/L glucose (Invitrogen), and 50 μg/mL gentamicin (Invitrogen). M07e cells were also supplemented with 100 ng/mL of granulocyte monocyte-colony stimulating factor (GM-CSF, R&D Systems). All treatments were performed in normal growth media. Dimethyl sulfoxide (DMSO) was used as a vehicle (control) in the experiments described below.
Platelets were isolated from megakaryocytes by centrifugation at 150 xg for 10 min. Supernatants underwent sequential centrifugation (500 xg for 10 min and 1000×g for 10 min). The remaining platelet pellet was fixed then permeabilized with a CD61 or CD41 antibody. 7-AAD (BD Pharmingen) was added for 10 min before analyzing the cells by flow cytometry. […]

On to `CCCCCC=CC=C1C(=O)C=C[C@@H]1CC=CCCCC(=O)O` [15d-PGJ2, 15-deoxy-Δ^12,14 prostaglandin J2], for which the “platelet numbers compared with vehicle” value in the experiment on C57BL/6 mice is on record as “higher platelet numbers”. Besides, the platelet production result with M07e cells was “increased platelet production”.
